# Data from patent US20230000876A1, “TREATING CANCERS WITH A CYCLIN-DEPENDENT KINASE INHIBITOR” (Nuvation Bio Inc., priority 2021, published 2023).
# Read-outs that look alike come from different tables or passages of the source.
# What was measured:
# [1] = Pharmacokinetics and brain distribution after single oral dose, rats; type: in vivo, male Sprague-Dawley rats; conditions: for Kp at 6 h / concentration at 6 h / Cmax / Tmax / concentration at 1 h / concentration at 2 h / concentration at 4 h / concentration at 8 h / concentration at 12 h / AUC(0-inf) / half-life / concentration at 24 h: male, Sprague-Dawley, rat; for Kp at 6 h: po
# Procedure: The pharmacokinetics and brain distribution in maleCD1 mice and Sprague-Dawley rats following a single oral (PO) dose was evaluated. The compound of formula (I) was administered once at 10 mg/kg to mice and at 1, 10, 30, and 100 mg/kg to rats. All doses, compound of formula (I) concentrations, and derived PK parameters are expressed as the free base of the compound of formula (I).
# The in-life portion of these studies was performed by Alliance Pharma (Malvern, Pa.) according to Protocols 200107-02 (mice) and 1910158-02 (rats). Animals were assigned randomly to the dose groups and were fasted 12 hours prior to dosing. Water was available ad libitum. The compound of formula (I) (as an HCl salt) was given to male CD1 mice at 10 mg/kg single PO dose, while in Sprague-Dawley rats, the doses were 1, 10, 30, and 100 mg/kg. In both studies, the compound of formula (I) was formulated in 0.5% hydroxypropyl methylcellulose (HPMC)/0.2% Tween 80 and the dosing volume was 5 mL/kg for all dose groups.
# Whole blood was collected at 2, 4, 6, and 12 hours post dose from mice and predose and 1, 2, 4, 8, 12, and 24 hours post dose from rats into tubes containing dipotassium ethylenediaminetetraacetic acid (K2EDTA). Blood was obtained from 3 mice and 4 rats per time-point per dose level. The blood samples were processed into plasma analyzed at Alliance Pharma using the method as described below.
# The brain tissue was collected from mice at 2, 4, 6, and 12 hours post dose and was collected from rats at 6 hours post dose given 1, 10, 30, or 100 mg/kg of the compound of formula (I). Brain tissue was obtained from 3 mice per time-point at the 10 mg/kg dose level and 4 rats per dose level at the 6-hour post dose time-point.
# Brain tissue was rinsed by phosphate-buffered saline (PBS) buffer immediately after harvest, weighed, and mixed with solvent (MeOH:H2O [volume over volume of 20:80]) with a ratio of tissue to solvent of 1:4 (weight over volume). […] After homogenization, the homogenate was aliquoted out for sample analysis.
# The concentrations of the compound of formula (I) in the plasma and brain homogenate were determined versus a calibration curve prepared in plasma and naïve brain homogenate, respectively. Samples were deproteinized with acetonitrile containing tolbutamide as internal standard. After centrifugation, the supernatants were analyzed by liquid chromatography with tandem mass spectrometry (LC-MS/MS). Chromatography was performed with a Zorbax SB-C18 (50×2.1 mm, […]) column under gradient conditions described in Table 22. Mobile Phase A (0.1% formic acid [FA] in water) and Mobile Phase B (0.1% FA in acetonitrile) were delivered as a flow rate of 0.8 mL/min. LC-MS/MS was performed using a positive TurboIonSpray® interface on a SciexAPI 4000 and multiple-reaction monitoring (MRM) over a concentration range of 1 ng/mL to 1000 (rats) or 2000 (mice) ng/mL for the plasma and brain homogenate samples.
# The mean plasma concentration-time data of the compound of formula (I) was used to determine the pharmacokineticparameters by standard noncompartmental methods using Phoenix® WinNonlin (version 8.2.0; Certara, Princeton, N.J.). Graphs were plotted in Prism® (version 2.3.0; GraphPad, San Diego, Calif.). Concentrations were rounded to 3 significant figures.
# [2] = test system: 7 melanoma cell lines (A375, COLO 829, SK-MEL-3, SK-MEL-5, SK-MEL-24, SK-MEL-28, SK-MEL-31); experiment: Anti-proliferation assay, 7 melanoma cell lines taken together; type: cell-based
# Procedure: Inhibition rate (IR) of the tested compounds was determined by the following formula: IR (%)=(1−(RLU compound−RLU day0)/(RLU control−RLU day0))*100%. The inhibitions of different dose of compound were calculated in Excel file, and then were used to plot inhibition curves and evaluate related parameters, such as Min (%), Max (%) and GI50. The data were interpreted by GraphPad Prism.
# The anti-proliferation effect of the compound of formula (I) in 7 CNS melanoma cell lines was evaluated.
# [3] = plasma, single PO 1 mg/kg (HCl salt, as free base)
# [4] = plasma, single PO 10 mg/kg (HCl salt, as free base)
# [5] = plasma, single PO 30 mg/kg (HCl salt, as free base)
# [6] = plasma, single PO 100 mg/kg (HCl salt, as free base)
compound,measurement,setting,value
"CC(C)N1CCOc2c(F)cc(-c3nc(Nc4ccc(C5CCN(C)CC5)cn4)ncc3F)cc21 [Compound (I), 5-fluoro-4-(8-fluoro-4-isopropyl-3,4-dihydro-2H-benzo[b][1,4]oxazin-6-yl)-N-(5-(1-methylpiperidin-4-yl)pyridin-2-yl)pyrimidin-2-amine]",Kp at 6 h,"[1]; brain, 1 mg/kg, single PO 1 mg/kg, 6 h, read-out: Brain:Plasma Ratio",6.3
same,Kp at 6 h,"[1]; brain, 10 mg/kg, single PO 10 mg/kg, 6 h, read-out: Brain:Plasma Ratio",6.1
same,Kp at 6 h,"[1]; brain, 30 mg/kg, single PO 30 mg/kg, 6 h, read-out: Brain:Plasma Ratio",11
same,Kp at 6 h,"[1]; brain, 100 mg/kg, 6 hours post-dose, each dose level (1, 10, 30, 100 mg/kg PO), read-out: Brain-to-plasma concentration ratio",> 6
same,Kp at 6 h,"[1]; brain, 100 mg/kg, single PO 100 mg/kg, 6 h, read-out: Brain:Plasma Ratio",12
same,concentration at 6 h,"[1]; brain, single PO 1 mg/kg, 6 h, read-out: Brain Conc",58.9 ng/mL
same,concentration at 6 h,"[1]; brain, single PO 10 mg/kg, 6 h, read-out: Brain Conc",548 ng/mL
same,concentration at 6 h,"[1]; brain, single PO 30 mg/kg, 6 h, read-out: Brain Conc",1970 ng/mL
same,concentration at 6 h,"[1]; brain, single PO 100 mg/kg, 6 h, read-out: Brain Conc",2800 ng/mL
same,Cmax,"[1]; plasma, single PO 1 mg/kg",9.37 ng/mL
same,Tmax,"[1]; plasma, single PO 1 mg/kg",6 h
same,concentration at 1 h,[1]; [3],1.52 ng/mL
same,concentration at 2 h,[1]; [3],2.41 ng/mL
same,concentration at 4 h,[1]; [3],4.91 ng/mL
same,concentration at 6 h,"[1]; plasma, single PO 1 mg/kg (HCl salt, as free base), 6 h, read-out: Mean Plasma Concentration",9.37 ng/mL
same,concentration at 8 h,[1]; [3],6.42 ng/mL
same,concentration at 12 h,[1]; [3],4.64 ng/mL
same,AUC(0-inf),"[1]; plasma, single PO 10 mg/kg",1080 ng·h/mL
same,Cmax,"[1]; plasma, single PO 10 mg/kg",90.4 ng/mL
same,Tmax,"[1]; plasma, single PO 10 mg/kg",6 h
same,half-life,"[1]; plasma, single PO 10 mg/kg",7.54 h
same,concentration at 1 h,[1]; [4],8.45 ng/mL
same,concentration at 2 h,[1]; [4],25.9 ng/mL
same,concentration at 4 h,[1]; [4],51.6 ng/mL
same,concentration at 6 h,"[1]; plasma, single PO 10 mg/kg (HCl salt, as free base), 6 h, read-out: Mean Plasma Concentration",90.4 ng/mL
same,concentration at 8 h,[1]; [4],52.5 ng/mL
same,concentration at 12 h,[1]; [4],46.3 ng/mL
same,concentration at 24 h,"[1]; plasma, single PO 10 mg/kg (HCl salt, as free base), 24 h",12.9 ng/mL
same,AUC(0-inf),"[1]; plasma, single PO 30 mg/kg",3870 ng·h/mL
same,Cmax,"[1]; plasma, single PO 30 mg/kg",180 ng/mL
same,Tmax,"[1]; plasma, single PO 30 mg/kg",6 h
same,half-life,"[1]; plasma, single PO 30 mg/kg",13.4 h
same,concentration at 1 h,[1]; [5],43.2 ng/mL
same,concentration at 2 h,[1]; [5],73.1 ng/mL
same,concentration at 4 h,[1]; [5],136 ng/mL
same,concentration at 6 h,"[1]; plasma, single PO 30 mg/kg (HCl salt, as free base), 6 h, read-out: Mean Plasma Concentration",180 ng/mL
same,concentration at 8 h,[1]; [5],155 ng/mL
same,concentration at 12 h,[1]; [5],117 ng/mL
same,concentration at 24 h,"[1]; plasma, single PO 30 mg/kg (HCl salt, as free base), 24 h",66.4 ng/mL
same,Cmax,"[1]; plasma, single PO 100 mg/kg",243 ng/mL
same,Tmax,"[1]; plasma, single PO 100 mg/kg",6 h
same,concentration at 1 h,[1]; [6],81.2 ng/mL
same,concentration at 2 h,[1]; [6],142 ng/mL
same,concentration at 4 h,[1]; [6],151 ng/mL
same,concentration at 6 h,"[1]; plasma, single PO 100 mg/kg (HCl salt, as free base), 6 h, read-out: Mean Plasma Concentration",243 ng/mL
same,concentration at 8 h,[1]; [6],170 ng/mL
same,concentration at 12 h,[1]; [6],193 ng/mL
same,concentration at 24 h,"[1]; plasma, single PO 100 mg/kg (HCl salt, as free base), 24 h",224 ng/mL
same,Mean Plasma Concentration,"[1]; single PO 1 mg/kg (HCl salt, as free base), 24 h",BQL
same,Inhibitory effect in cell viability assay,[2],significant inhibitory effects
same,GI50,"[2]; read-out: Absolute GI50 values, range over 7 cell lines",156 to 1240 nM
